Measured values published in patent publication US20210393655A1, “Vesicular Formulations for Use in the Treatment of Pain or Reduced Mobility of a Joint” (Sequessome Technology Holdings Limited, priority 2012, published 2021).

Experiments:
Assay type in all cases: in vivo, human
[1] = tested on: patients with osteoarthritis of the knee; test: Clinical trial CL-033-III-03: WOMAC pain subscale
Method: (§1) Six clinical trials were conducted with Formulation X on patients with osteoarthritis of the knee. One efficacy measure was the change from baseline to the end of the study in patients' perception of joint stiffness and physical function. In studies CL-033-III-03 and CL-033-III-06, joint stiffness was assessed using two single items describing the severity of stiffness, both of which were measured using an 11-point numerical rating (NRS) on the stiffness subscale of the Western Ontario and McMaster Universities (WOMAC) Osteoarthritis Index (version 3.1) instrument. A measure of physical function was performed in all six studies using the WOMAC Osteoarthritis Index (version 3.1), which consisted of 17 single items describing the difficulty in performing daily activities. Each item was rated on a VAS or an 11-point numerical scale.
Pain, joint mobility and physical function outcomes were compared in study CL-033-III-03.

[2] = tested on: patients with osteoarthritis of the knee; test: Clinical trials in osteoarthritis of the knee: WOMAC stiffness subscale; conditions: study CL-033-III-03; end of 3 month treatment
Method: as §1

[3] = tested on: patients with osteoarthritis of the knee; test: Clinical trials in osteoarthritis of the knee: WOMAC physical function subscale
Method: as §1, with “One” for “Six clinical trials were conducted with Formulation X on patients with osteoarthritis of the knee. One”

[4] = oral celecoxib 100 mg b.i.d. (n = 233), 3 months, CL-033-III-03
[5] = study CL-033-III-03, end of 3 month treatment

Compound: Cc1ccc(-c2cc(C(F)(F)F)nn2-c2ccc(S(N)(=O)=O)cc2)cc1 [celecoxib]
- Effect size versus oral placebo (Mann-Whitney estimator, MW), WOMAC pain subscale score [1, 4]: MW = 0.5873
- Reduction in joint pain (WOMAC pain) [1, 5]: 40.4%
- Reduction in stiffness (WOMAC stiffness) [2]: 37.9%
- Effect size versus oral placebo (Mann-Whitney estimator, MW), WOMAC function subscale score [3, 4]: MW = 0.5949
- Improvement in physical function (WOMAC function) [3, 5]: 38.2%
